The results in this text go back to ChEMBL document CHEMBL1126437, “Synthesis and cytotoxicity of enantiomeric pairs of duocarmycin a and its 2-epimer” (Bioorg Med Chem Lett, 1992).

For this test, the system named is P388. The test can be described thus: In vitro evaluation for cytotoxicity against P388 murine leukemia. The test is classed as functional, cell-based, Mus musculus.

Each structure is given as a SMILES string. ≈ marks a conversion by molar mass, not a printed value.

By IC50 is commonly meant the concentration at which inhibition is half-maximal. With `COC(=O)[C@@]1(C)N=C2C(=O)C=C3N(C(=O)c4cc5cc(OC)c(OC)c(OC)c5[nH]4)C[C@@H]4C[C@]34C2=C1O`, the IC50 (Mus musculus, P388, read-out: IC50) came to 0.3 ng/mL (≈ 0.591 nM).

As for `COC(=O)[C@]1(C)N=C2C(=O)C=C3N(C(=O)c4cc5cc(OC)c(OC)c(OC)c5[nH]4)C[C@H]4C[C@@]34C2=C1O`, the IC50 (p388) is 0.002 ng/mL (≈ 0.00394 nM).
